The source of these data is ChEMBL document CHEMBL1129315, “Studies on selectin blockers. 2. Novel selectin blocker as potential therapeutics for inflammatory disorders” (J Med Chem, 1996).

Some results are limits rather than exact numbers.

The term IC50 denotes the concentration that gives 50% inhibition.

One assay deals with T1, L-selectin (Homo sapiens, UniProt P14151).
T1 sequence (P14151 whole entry): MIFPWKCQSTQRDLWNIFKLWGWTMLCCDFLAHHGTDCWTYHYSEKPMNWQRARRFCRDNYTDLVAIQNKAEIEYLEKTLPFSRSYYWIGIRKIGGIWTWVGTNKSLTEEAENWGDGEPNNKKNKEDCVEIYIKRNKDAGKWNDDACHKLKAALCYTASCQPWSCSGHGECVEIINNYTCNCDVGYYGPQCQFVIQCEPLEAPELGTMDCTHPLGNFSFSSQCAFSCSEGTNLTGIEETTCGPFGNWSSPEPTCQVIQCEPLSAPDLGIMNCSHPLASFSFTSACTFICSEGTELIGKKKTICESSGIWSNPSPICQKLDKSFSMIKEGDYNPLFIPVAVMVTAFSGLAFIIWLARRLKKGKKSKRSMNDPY
As to the kind of experiment: Inhibitory concentration against blocking of Selectin L during migration of inflammatory cells to inflammatory site.

Another assay concerns the target T2, P-selectin (Homo sapiens, UniProt P16109).
T2 sequence (P16109 whole entry): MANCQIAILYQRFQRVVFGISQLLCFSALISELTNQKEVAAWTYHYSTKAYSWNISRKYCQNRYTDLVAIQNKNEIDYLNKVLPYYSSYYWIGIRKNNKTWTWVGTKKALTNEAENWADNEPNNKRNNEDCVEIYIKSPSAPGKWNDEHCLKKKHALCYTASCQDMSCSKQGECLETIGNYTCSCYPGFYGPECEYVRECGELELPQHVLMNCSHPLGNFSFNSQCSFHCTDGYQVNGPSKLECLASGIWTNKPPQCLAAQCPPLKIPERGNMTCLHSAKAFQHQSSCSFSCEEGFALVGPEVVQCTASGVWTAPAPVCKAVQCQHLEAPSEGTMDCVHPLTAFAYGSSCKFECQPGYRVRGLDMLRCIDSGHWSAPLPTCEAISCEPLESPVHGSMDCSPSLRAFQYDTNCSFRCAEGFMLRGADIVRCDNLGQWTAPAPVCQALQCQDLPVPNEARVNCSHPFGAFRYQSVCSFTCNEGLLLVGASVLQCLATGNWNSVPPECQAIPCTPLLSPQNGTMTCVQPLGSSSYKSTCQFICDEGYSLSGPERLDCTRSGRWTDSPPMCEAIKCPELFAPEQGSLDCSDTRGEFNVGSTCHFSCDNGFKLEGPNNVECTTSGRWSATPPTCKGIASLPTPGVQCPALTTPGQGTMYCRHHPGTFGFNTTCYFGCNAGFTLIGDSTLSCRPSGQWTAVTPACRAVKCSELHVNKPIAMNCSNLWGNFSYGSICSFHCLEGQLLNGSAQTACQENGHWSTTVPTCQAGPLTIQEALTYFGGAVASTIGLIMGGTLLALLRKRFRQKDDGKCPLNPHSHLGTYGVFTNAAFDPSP
As to the kind of experiment: Inhibitory concentration against blocking of Selectin P during migration of inflammatory cells to inflammatory site.

In a further assay the target is T3, E-selectin (Homo sapiens, UniProt P16581).
T3 sequence (P16581 whole entry): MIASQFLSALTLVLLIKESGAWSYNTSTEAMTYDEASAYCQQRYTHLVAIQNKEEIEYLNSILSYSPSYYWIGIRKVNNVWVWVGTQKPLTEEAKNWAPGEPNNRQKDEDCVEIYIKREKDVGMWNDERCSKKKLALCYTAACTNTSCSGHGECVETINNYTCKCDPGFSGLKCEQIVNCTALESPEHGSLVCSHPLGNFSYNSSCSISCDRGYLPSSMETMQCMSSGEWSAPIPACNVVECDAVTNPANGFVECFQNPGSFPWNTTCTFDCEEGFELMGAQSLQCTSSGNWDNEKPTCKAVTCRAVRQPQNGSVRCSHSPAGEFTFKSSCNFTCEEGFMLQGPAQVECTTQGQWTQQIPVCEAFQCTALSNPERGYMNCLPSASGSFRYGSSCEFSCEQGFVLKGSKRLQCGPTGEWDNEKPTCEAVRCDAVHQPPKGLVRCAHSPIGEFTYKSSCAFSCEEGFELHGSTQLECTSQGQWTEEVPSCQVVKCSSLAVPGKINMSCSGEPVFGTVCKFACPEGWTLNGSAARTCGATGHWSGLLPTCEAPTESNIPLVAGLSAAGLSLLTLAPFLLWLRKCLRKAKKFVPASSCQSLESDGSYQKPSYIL
As to the kind of experiment: Inhibitory concentration against blocking of E-selectin during migration of inflammatory cells to inflammatory site.

Take `CC(=O)N[C@H]1[C@H]([C@H](O)[C@H](O)CO)O[C@@](O[C@H]2[C@@H](O)[C@@H](CO)O[C@@H](O[C@@H]([C@H](O[C@@H]3O[C@@H](C)[C@@H](O)[C@@H](O)[C@@H]3O)[C@H](C=O)NC(C)=O)[C@H](O)CO)[C@@H]2O)(C(=O)O)C[C@@H]1O` [SIALYL LEWIS X]: the IC50 at L-selectin and on P-selectin was > 1 mM in each case.
Take `CC1OC(OC2C(O)COC(CO)C2OC2OC(CO)C(O)C(OS(=O)(=O)O)C2O)C(O)C(O)C1O` (stereo not given): the IC50 on L-selectin is > 1 mM; on P-selectin, 0.3 mM; at E-selectin it was > 1 mM.
